Reference: patent publication US20100056524A1, “Compound” (priority 2008, published 2010)
Where a name gives a salt, the structure may show the parent alone.

Target: T1, TBK1 (Homo sapiens, UniProt Q9UHD2)
T1 construct: All protein kinases were of human origin and encoded full length proteins, unless indicated otherwise; His6; made in house; host or cells: insect Sf21 cells
T1 sequence (Q9UHD2 1-729): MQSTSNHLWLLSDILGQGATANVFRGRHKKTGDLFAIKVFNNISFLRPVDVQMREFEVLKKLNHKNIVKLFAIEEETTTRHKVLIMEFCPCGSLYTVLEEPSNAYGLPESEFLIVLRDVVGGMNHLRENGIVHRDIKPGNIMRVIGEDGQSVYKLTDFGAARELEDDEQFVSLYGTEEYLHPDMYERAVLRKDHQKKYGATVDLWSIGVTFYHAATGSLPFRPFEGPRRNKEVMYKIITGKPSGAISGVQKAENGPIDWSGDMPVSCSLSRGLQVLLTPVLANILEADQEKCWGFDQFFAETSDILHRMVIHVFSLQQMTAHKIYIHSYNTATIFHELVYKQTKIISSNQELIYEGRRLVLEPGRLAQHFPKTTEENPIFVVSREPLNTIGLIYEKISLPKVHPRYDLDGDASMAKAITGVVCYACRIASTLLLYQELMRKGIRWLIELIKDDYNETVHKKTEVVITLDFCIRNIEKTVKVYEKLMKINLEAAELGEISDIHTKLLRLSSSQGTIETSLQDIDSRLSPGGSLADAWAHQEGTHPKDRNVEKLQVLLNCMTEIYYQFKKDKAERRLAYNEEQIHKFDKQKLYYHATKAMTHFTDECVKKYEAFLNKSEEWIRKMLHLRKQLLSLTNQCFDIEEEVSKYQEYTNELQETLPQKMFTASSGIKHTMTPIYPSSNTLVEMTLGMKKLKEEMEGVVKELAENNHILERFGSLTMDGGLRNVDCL
Test: TBK1 protein kinase assay ([γ-33P]ATP, P81 filterplates)
Assay type: biochemical
Settings: 50 μM ATP; read-out: Potency (TBK1 IC50 potency score)
Method in brief: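 Human TBK1 assayed for 30 min with peptide substrate (300 μM), 50 μM [γ-33P]ATP and 10 mM magnesium acetate in 50 mM Tris/HCl pH 7.5, 0.1 mM EGTA, 0.1% 2-mercaptoethanol. Stopped with orthophosphoric acid and counted on P81 filters. IC50 from 10 compound concentrations.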

| IC50 [nM] | Structure (SMILES) |
| --- | --- |
| < 100 | O=C(NCCCNc1nc(Nc2ccc(CO)nc2)ncc1C1CC1)C1CCC1 [Example 103, Cyclobutanecarboxylic acid {3-[5-cyclopropyl-2-(6-hydroxymethyl-pyridin-3-ylamino)-pyrimidin-4-ylamino]-propyl}-amide] |
| < 100 | O=C(NCCCNc1nc(Nc2ccc(CN3CCOCC3)nc2)ncc1C1CC1)C1CCC1 [Example 104, Cyclobutanecarboxylic acid {3-[5-cyclopropyl-2-(6-morpholin-4-ylmethyl-pyridin-3-ylamino)-pyrimidin-4-ylamino]-propyl}-amide] |
| 100 to 1000 | O=C(NCCCOc1nc(Nc2cccc(F)c2)ncc1C1CC1)C1CCC1 [Example 105] |
| 100 to 1000 | CN(CCCNC(=O)C1CCC1)c1nc(Nc2cccc(F)c2)ncc1C1CC1 [Example 106, Cyclobutanecarboxylic acid (3-{[5-cyclopropyl-2-(3-fluoro-phenylamino)-pyrimidin-4-yl]-methyl-amino}-propyl)-amide] |
| < 100 | CN(CCCNc1nc(Nc2cccc(F)c2)ncc1C1CC1)C(=O)C1CCC1 [Example 107, Cyclobutanecarboxylic acid {3-[5-cyclopropyl-2-(3-fluoro-phenylamino)-pyrimidin-4-ylamino]-propyl}-methyl-amide] |
| < 100 | CCCC(=O)NCCCNc1nc(Nc2cccc(F)c2)ncc1C1CC1 [Example 108] |
| < 100 | CN(CCCNc1nc(Nc2ccc(N3CCOCC3)nc2)ncc1C1CC1)C(=O)C1CCC1 [Example 109, Cyclobutanecarboxylic acid {3-[5-cyclopropyl-2-(6-morpholin-4-yl-pyridin-3-ylamino)-pyrimidin-4-ylamino]-propyl}-methyl-amide] |
| 100 to 1000 | O=C1CCCCN1CCCNc1nc(Nc2cccc(F)c2)ncc1C1CC1 [Example 110] |
| 100 to 1000 | Cc1cccn(CCCNc2nc(Nc3cccc(F)c3)ncc2C2CC2)c1=O [Example 111, 1-{3-[5-Cyclopropyl-2-(3-fluoro-phenylamino)-pyrimidin-4-ylamino]-propyl}-3-methyl-H-pyridin-2-one] |
| 100 to 1000 | CN1CCN(CCCNc2nc(Nc3cccc(F)c3)ncc2C2CC2)C1=O [Example 112, 1-{3-[5-Cyclopropyl-2-(3-fluoro-phenylamino)-pyrimidin-4-ylamino]-propyl}-3-methyl-imidazolidin-2-one] |
| 100 to 1000 | CC1(C)CCN(CCCNc2nc(Nc3cccc(F)c3)ncc2C2CC2)C1=O [Example 113, 1-{3-[5-Cyclopropyl-2-(3-fluoro-phenylamino)-pyrimidin-4-ylamino]-propyl}-3,3-dimethyl-pyrrolidin-2-one] |
| 100 to 1000 | O=c1c(C(F)(F)F)cccn1CCCNc1nc(Nc2cccc(F)c2)ncc1C1CC1 [Example 114, 1-{3-[5-Cyclopropyl-2-(3-fluoro-phenylamino)-pyrimidin-4-ylamino]-propyl}-3-trifluoromethyl-1H-pyridin-2-one] |
| < 100 | Cn1cc(-c2ccc(Nc3ncc(C4CC4)c(NCCCNC(=O)C4CCC4)n3)cn2)cn1 [Example 115, Cyclobutanecarboxylic acid (3-{5-cyclopropyl-2-[6-(1-methyl-1H-pyrazol-4-yl)-pyridin-3-ylamino]-pyrimidin-4-ylamino}-propyl)-amide] |
| < 100 | O=C(NCCCNc1nc(Nc2ccc(-c3cncnc3)nc2)ncc1C1CC1)C1CCC1 [Example 116, Cyclobutanecarboxylic acid {3-[5-cyclopropyl-2-(6-pyrimidin-5-yl-pyridin-3-ylamino)-pyrimidin-4-ylamino]-propyl}-amide] |
| < 100 | O=C(NCCCNc1nc(Nc2cccc(-c3cncnc3)c2)ncc1C1CC1)C1CCC1 [Example 117, Cyclobutanecarboxylic acid {3-[5-cyclopropyl-2-(3-pyrimidin-5-yl-phenylamino)-pyrimidin-4-ylamino]-propyl}-amide] |
| < 100 | O=C(NCCCNc1nc(Nc2ccc(-c3cn[nH]c3)nc2)ncc1C1CC1)C1CCC1 [Example 118, Cyclobutanecarboxylic acid (3-{5-cyclopropyl-2-[6-(1H-pyrazol-4-yl)-pyridin-3-ylamino]-pyrimidin-4-ylamino}-propyl)-amide] |
| < 100 | O=C(NCCCNc1nc(Nc2ccc(-c3ccncc3)nc2)ncc1C1CC1)C1CCC1 [Example 119, Cyclobutanecarboxylic acid {3-[2-([2,4′]bipyridinyl-5-ylamino)-5-cyclopropyl-pyrimidin-4-ylamino]-propyl}-amide] |
| < 100 | O=C(NCCCNc1nc(Nc2ccc(-c3cccnc3)nc2)ncc1C1CC1)C1CCC1 [Example 120, Cyclobutanecarboxylic acid {3-[2-([2,3′]bipyridinyl-5-ylamino)-5-cyclopropyl-pyrimidin-4-ylamino]-propyl}-amide] |
| < 100 | O=C(NCCCNc1nc(Nc2cccc(-c3ccncc3)c2)ncc1C1CC1)C1CCC1 [Example 121, Cyclobutanecarboxylic acid {3-[5-cyclopropyl-2-(3-pyridin-4-yl-phenylamino)-pyrimidin-4-ylamino]-propyl}-amide] |
| < 100 | CN1CCN(Cc2cccc(Nc3ncc(C4CC4)c(NCCCNC(=O)C4CCC4)n3)c2)CC1 [Example 122, Cyclobutanecarboxylic acid (3-{5-cyclopropyl-2-[3-(4-methyl-piperazin-1-ylmethyl)-phenylamino]-pyrimidin-4-ylamino}-propyl)-amide] |
| < 100 | CC(c1cccc(Nc2ncc(C3CC3)c(NCCCNC(=O)C3CCC3)n2)c1)N1CCOCC1 (stereo not drawn) [Example 123, Cyclobutanecarboxylic acid (3-{5-cyclopropyl-2-[3-(1-morpholin-4-yl-ethyl)-phenylamino]-pyrimidin-4-ylamino}-propyl)-amide] |
| < 100 | O=C(NCCCNc1nc(Nc2cccc(C(=O)N3CCCC3)c2)ncc1C1CC1)C1CCC1 [Example 124, Cyclobutanecarboxylic acid (3-{5-cyclopropyl-2-[3-(pyrrolidine-1-carbonyl)-phenylamino]-pyrimidin-4-ylamino}-propyl)-amide] |
| < 100 | CN(C)[C@H]1CCN(C(=O)c2cccc(Nc3ncc(C4CC4)c(NCCCNC(=O)C4CCC4)n3)c2)C1 [Example 125, Cyclobutanecarboxylic acid (3-{5-cyclopropyl-2-[3-((S)-3-dimethylamino-pyrrolidine-1-carbonyl)-phenylamino]-pyrimidin-4-ylamino}-propyl)-amide] |
| < 100 | CN(C)[C@@H]1CCN(C(=O)c2cccc(Nc3ncc(C4CC4)c(NCCCNC(=O)C4CCC4)n3)c2)C1 [Example 126, Cyclobutanecarboxylic acid (3-{5-cyclopropyl-2-[3-((R)-3-dimethylamino-pyrrolidine-1-carbonyl)-phenylamino]-pyrimidin-4-ylamino}-propyl)-amide] |
| < 100 | CN1CCN(C(=O)Cc2cccc(Nc3ncc(C4CC4)c(NCCCNC(=O)C4CCC4)n3)c2)CC1 [Example 127, Cyclobutanecarboxylic acid [3-(5-cyclopropyl-2-{3-[2-(4-methyl-piperazin-1-yl)-2-oxo-ethyl]-phenylamino}-pyrimidin-4-ylamino)-propyl]-amide] |
| < 100 | CN(C)C1CCN(C(=O)Cc2cccc(Nc3ncc(C4CC4)c(NCCCNC(=O)C4CCC4)n3)c2)CC1 [Example 128, Cyclobutanecarboxylic acid [3-(5-cyclopropyl-2-{3-[2-(4-dimethylamino-piperidin-1-yl)-2-oxo-ethyl]-phenylamino}-pyrimidin-4-ylamino)-propyl]-amide] |
| < 100 | O=C(NCCCNc1nc(Nc2ccc3cn[nH]c3c2)ncc1C1CC1)C1CCC1 [Example 129, Cyclobutanecarboxylic acid {3-[5-cyclopropyl-2-(1H-indazol-6-ylamino)-pyrimidin-4-ylamino]-propyl}-amide. Hydrochloride] |
| < 100 | O=C(NCCCNc1nc(Nc2ccc3[nH]ncc3c2)ncc1C1CC1)C1CCC1 [Example 130, Cyclobutanecarboxylic acid {3-[5-cyclopropyl-2-(1H-indazol-5-ylamino)-pyrimidin-4-ylamino]-propyl}-amide] |
| < 100 | O=C(NCCCNc1nc(Nc2cccc(CN3CCCC3)c2)ncc1C1CC1)C1CCC1 [Example 131, Cyclobutanecarboxylic acid {3-[5-cyclopropyl-2-(3-pyrrolidin-1-ylmethyl-phenylamino)-pyrimidin-4-ylamino]-propyl}-amide] |
| < 100 | CN(Cc1cccc(Nc2ncc(C3CC3)c(NCCCNC(=O)C3CCC3)n2)c1)C1CCCC1 [Example 132, Cyclobutanecarboxylic acid [3-(2-{3-[(cyclopentyl-methyl-amino)-methyl]-phenylamino}-5-cyclopropyl-pyrimidin-4-ylamino)-propyl]-amide] |
